Results published in patent US9150545B2, “Carboxamide compounds and their use as calpain inhibitors V” (ABBVIE DEUTSCHLAND GMBH & CO. KG, priority 2012, dated 2015).
Structures can show the parent of a compound that is named as a salt.

Target: T1, calpain-I isolated from human erythrocytes (Homo sapiens, UniProt P07384)
T1 construct: calpain-I—isolated from human erythrocytes (Calbiochem #208713); purchased Calbiochem 208713; host or cells: human erythrocytes (native tissue isolate)
T1 sequence (P07384 1-714): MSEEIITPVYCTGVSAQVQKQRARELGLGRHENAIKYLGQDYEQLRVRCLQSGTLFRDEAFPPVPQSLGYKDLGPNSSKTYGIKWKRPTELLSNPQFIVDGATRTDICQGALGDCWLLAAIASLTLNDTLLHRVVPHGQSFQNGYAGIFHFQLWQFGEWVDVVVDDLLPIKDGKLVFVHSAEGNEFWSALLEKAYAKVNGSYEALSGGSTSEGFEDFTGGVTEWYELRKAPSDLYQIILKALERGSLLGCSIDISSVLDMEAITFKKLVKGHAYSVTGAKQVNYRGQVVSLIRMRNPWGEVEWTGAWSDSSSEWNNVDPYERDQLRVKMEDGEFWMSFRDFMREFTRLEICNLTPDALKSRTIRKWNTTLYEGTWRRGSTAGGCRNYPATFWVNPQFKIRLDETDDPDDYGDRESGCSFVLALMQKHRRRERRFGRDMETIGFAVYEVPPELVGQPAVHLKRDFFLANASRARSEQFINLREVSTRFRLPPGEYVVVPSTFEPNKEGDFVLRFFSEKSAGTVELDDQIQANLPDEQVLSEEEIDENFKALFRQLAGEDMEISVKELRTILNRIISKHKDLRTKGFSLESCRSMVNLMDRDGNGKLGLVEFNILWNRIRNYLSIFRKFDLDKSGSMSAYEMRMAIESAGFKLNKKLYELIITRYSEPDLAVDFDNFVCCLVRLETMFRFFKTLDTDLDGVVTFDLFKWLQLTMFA
T1 sequence (P04632 1-268 partner): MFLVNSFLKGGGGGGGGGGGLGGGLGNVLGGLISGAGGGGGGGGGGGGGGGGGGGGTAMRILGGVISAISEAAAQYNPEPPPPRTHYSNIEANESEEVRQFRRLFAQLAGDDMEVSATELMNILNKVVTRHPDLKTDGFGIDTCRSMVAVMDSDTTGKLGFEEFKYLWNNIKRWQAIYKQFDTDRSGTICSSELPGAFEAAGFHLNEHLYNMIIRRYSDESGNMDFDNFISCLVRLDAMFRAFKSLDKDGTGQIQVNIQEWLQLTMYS
Assay: Calpain I kinetic fluorescence enzyme inhibition assay
Type: biochemical
Conditions: apparent Ki from IC50 by Cheng-Prussoff
Method: Testing for blockade of the corresponding enzymic activities was carried out by means of kinetic fluorescence assays (excitation 390 nm, emission 460 nm).
Apparent Ki values were calculated from the experimentally determined IC50 values by the Cheng-Prussoff relation assuming a reversible competitive enzyme inhibition.
20 nM calpain-I—isolated from human erythrocytes (Calbiochem #208713), 100 μM Suc-Leu-Tyr-AMC (Bachem #I-1355) as substrate in buffer with 62 mM imidazole, 0.3 mM CaCl2, 0.10% CHAPS, 0.05% BSA, 1 mM DTT at pH 7.3 and room temperature.

| Ki | SMILES |
| --- | --- |
| < 250 nM | CC1CN(Cc2ccn(-c3ncccc3C(=O)NC(Cc3ccccc3)C(=O)C(N)=O)n2)CC(C)O1 (single isomer, unassigned) [Example 2a, N-(4-Amino-3,4-dioxo-1-phenylbutan-2-yl)-2-(3-((2,6-dimethylmorpholino)-methyl)-1H-pyrazol-1-yl)nicotinamide] |
| < 250 nM | CC1CN(Cc2ccn(-c3ncccc3C(=O)NC(Cc3ccccc3)C(=O)C(N)=O)n2)CC(C)O1 (single isomer, unassigned) [Example 2b, N-(4-Amino-3,4-dioxo-1-phenylbutan-2-yl)-2-(3-((2,6-dimethylmorpholino)-methyl)-1H-pyrazol-1-yl)nicotinamide] |
| < 250 nM | NC(=O)C(=O)C(Cc1ccccc1)NC(=O)c1cccnc1-n1ccc(CN2CCOC3CCCCC32)n1 (single isomer, unassigned) [Example 8a, 2-(3-((2H-Benzo[b][1,4]oxazin-4(3H,4aH,5H,6H,7H,8H,8aH)-yl)methyl)-1H-pyrazol-1-yl)-N-(4-amino-3,4-dioxo-1-phenylbutan-2-yl)nicotinamide trifluoroacetate] |
| < 250 nM | NC(=O)C(=O)C(Cc1ccccc1)NC(=O)c1cccnc1-n1ccc(CN2CCOC3CCCCC32)n1 (single isomer, unassigned) [Example 8b, 2-(3-((2H-Benzo[b][1,4]oxazin-4(3H,4aH,5H,6H,7H,8H,8aH)-yl)methyl)-1H-pyrazol-1-yl)-N-(4-amino-3,4-dioxo-1-phenylbutan-2-yl)nicotinamide trifluoroacetate] |
| < 250 nM | NC(=O)C(=O)C(Cc1ccccc1)NC(=O)c1cccnc1-n1ccc(CN2CCOCC2)n1 (stereo not drawn) [Example 1, N-(4-Amino-3,4-dioxo-1-phenylbutan-2-yl)-2-(3-(morpholinomethyl)-1H-pyrazol-1-yl)nicotinamide] |
| < 250 nM | NC(=O)C(=O)C(Cc1ccccc1)NC(=O)c1cccnc1-n1ccc(CN2CCC(F)(F)CC2)n1 (stereo not drawn) [Example 3, N-(4-Amino-3,4-dioxo-1-phenylbutan-2-yl)-2-(3-((4,4-difluoropiperidin-1-yl)methyl)-1H-pyrazol-1-yl)nicotinamide trifluoroacetate] |
| < 250 nM | NC(=O)C(=O)C(Cc1ccccc1)NC(=O)c1cccnc1-n1cc2c(n1)CCN(Cc1ccccc1)C2 (stereo not drawn) [Example 4, N-(4-Amino-3,4-dioxo-1-phenylbutan-2-yl)-2-(5-benzyl-4,5,6,7-tetrahydro-2H-pyrazolo[4,3-c]pyridin-2-yl)nicotinamide] |
| < 250 nM | NC(=O)C(=O)C(Cc1ccccc1)NC(=O)c1cccnc1-n1ccc(CN2CCC(c3ccccc3)CC2)n1 (stereo not drawn) [Example 5, N-(4-Amino-3,4-dioxo-1-phenylbutan-2-yl)-2-(3-((4-phenylpiperidin-1-yl)methyl)-1H-pyrazol-1-yl)nicotinamide] |
| < 250 nM | NC(=O)C(=O)C(Cc1ccccc1)NC(=O)c1cccnc1-n1ccc(CN2CCOc3ccccc32)n1 (stereo not drawn) [Example 6, 2-(3-((2H-Benzo[b][1,4]oxazin-4(3H)-yl)methyl)-1H-pyrazol-1-yl)-N-(4-amino-3,4-dioxo-1-phenylbutan-2-yl)nicotinamide] |
| < 250 nM | NC(=O)C(=O)C(Cc1ccccc1)NC(=O)c1cccnc1-n1ccc(CN2CCCCC2)n1 (stereo not drawn) [Example 7, N-(4-Amino-3,4-dioxo-1-phenylbutan-2-yl)-2-(3-(piperidin-1-ylmethyl)-1H-pyrazol-1-yl)nicotinamide hydrochloride] |
| < 250 nM | NC(=O)C(=O)C(Cc1ccccc1)NC(=O)c1cccnc1-n1ccc(CN2CCOC(c3ccccc3)C2)n1 (stereo not drawn) [Example 9, N-(4-Amino-3,4-dioxo-1-phenylbutan-2-yl)-2-(3-((2-phenylmorpholino)methyl)-1H-pyrazol-1-yl)nicotinamide trifluoroacetate] |
| 250 to 400 nM | NC(=O)C(=O)C(Cc1ccccc1)NC(=O)c1cccnc1-n1ccc(CN2CCCC2)n1 (stereo not drawn) [Example 10, N-(4-Amino-3,4-dioxo-1-phenylbutan-2-yl)-2-(3-(pyrrolidin-1-ylmethyl)-1H-pyrazol-1-yl)nicotinamide trifluoroacetate] |
